Legend:
SKOV-3 cells = test: anchorage independent SKOV-3 cell assay (soft agar); type: cell-based, human
Experimental: SKOV-3 cells are grown on a soft agar layer in the presence of 2 nM BIBW2992BS or three concentrations of 5FU (200 nM, 400 nM, 800 nM) or in combination of both.

[1] = system: cell lines expressing double mutant EGF receptors; conditions: cited from earlier work
[2] = system: double mutant EGF receptors; conditions: cell lines expressing double mutant EGF receptors; cited from earlier work

O=c1[nH]cc(F)c(=O)[nH]1 [5FU, 5-fluorouracile]
inhibition of cell growth (SKOV-3 cells; 200 nM): No inhibition | inhibition of cell growth (SKOV-3 cells; 400 nM): No inhibition | inhibition at 0.8 µM (SKOV-3 cells; Homo sapiens, SK-OV-3, 800 nM, read-out: inhibition of cell growth): 13%

CN(C)C/C=C/C(=O)Nc1cc2c(Nc3ccc(F)c(Cl)c3)ncnc2cc1O[C@H]1CCOC1 [BIBW2992, 4-[(3-chloro-4-fluorophenyl)amino]-6-{[4-(N,N-dimethylamino)-1-oxo-2-buten-1-yl]amino}-7-((S)-tetrahydrofuran-3-yloxy)-quinazoline]
inhibition at 0.002 µM (SKOV-3 cells; Homo sapiens, SK-OV-3, 2 nM, read-out: inhibition of cell growth): 20%

CC#CC(=O)Nc1ccc2ncnc(Nc3cccc(Br)c3)c2c1 [CL 387,785]
inhibition of proliferation [1]: able to inhibit | inhibition of EGF-induced EGFR phosphorylation [2]: able to inhibit

Source: patent US20180086744A1, “COMBINATION TREATMENT OF CANCER COMPRISING EGFR/HER2 INHIBITORS” (Boehringer Ingelheim International GmbH, priority 2005, published 2018)
